# Measurements reported in patent US20240180898A1, “USE OF AMINOTHIAZOLE DERIVATIVE IN TREATMENT OF IMMUNE INFLAMMATION” (INNAMUNE PHARMACEUTICAL CO. LTD., priority 2021, published 2024).
# Tested on: macrophages derived from mouse bone marrow
# Test: LPS-induced secretion of inflammatory factors from macrophages, ELISA of supernatant
# Type: cell-based
# Conditions: 30 umol/L 2 hours before LPS 500 ng/ml for 24 hours; FIG. 2
# Protocol: macrophage grouping (in vitro):
# Cultivate macrophages derived from mouse bone marrow in vitro.
# The experiment was divided into 8 groups, namely: • Control group (untreated mouse bone marrow-derived macrophages), • LPS group (500 ng/ml LPS stimulated macrophages for 24 hours), • LPS+TJ-2 group (2 hours before LPS stimulation, administer 30 umol/L TJ-2 drug stimulation), • LPS+TJ-5 group (2 hours before LPS stimulation, administer 30 umol/L TJ-5 drug stimulation), • LPS+TJ-8 group (2 hours before LPS stimulation, administer 30 umol/L TJ-8 drug stimulation), • LPS+TJ-9 group (2 hours before LPS stimulation, administer 30 umol/L TJ-9 drug stimulation), • LPS+TJ-11 group (2 hours before LPS stimulation, administer 30 umol/L TJ-11 drug stimulation), • and LPS+TJ-12 group (2 hours before LPS stimulation, administer 30 umol/L TJ-12 drug stimulation).
# After 24 hours of LPS stimulation, the cell culture supernatant was removed and ELISA was performed to detect the concentration of various inflammatory factors in the supernatant.
SMILES,inhibitory effect on inflammatory factors compared among the compounds,"secretion of various inflammatory factors in macrophages (IL-1β, Il-6, TNF-α, IL-18, IL-17)"
"Cc1ccc(N2CCN(CC(=O)Nc3nc(-c4ccccc4)cs3)CC2)cc1 [INNA1602, 2-(4-(4-methylphenyl)piperazine-1-yl) -N-(4-phenylthiazole-2-yl) acetamide]",have the same inhibitory effect on inflammatory factors,can inhibit the secretion of various inflammatory factors in macrophages
"O=C(CN1CCN(Cc2ccccc2)CC1)Nc1nc(-c2ccccc2)cs1 [INNA1608, 2-(4-benzylpiperazine-1-yl)-N-(4-phenylthiazole-2-yl) acetamide]",have the same inhibitory effect on inflammatory factors,can inhibit the secretion of various inflammatory factors in macrophages
"COc1cccc(-c2csc(NC(=O)CCN3CCN(Cc4ccccc4)CC3)n2)c1 [INNA1609, 3-(4-benzylpiperazine-1-yl)-N-(4-(3-methoxyphenyl)thiazole-2-yl) propionamide]",have the same inhibitory effect on inflammatory factors,can inhibit the secretion of various inflammatory factors in macrophages
Cc1cccc(-c2csc(NC(=O)CCN3CCN(c4cccc(C)c4)CC3)n2)c1 [INNA1611],have the same inhibitory effect on inflammatory factors,can inhibit the secretion of various inflammatory factors in macrophages
"Cc1cccc(-c2csc(NC(=O)CN3CCN(Cc4ccccc4)CC3)n2)c1 [INNA1612, 2-(4-benzyl-base)piperazine-1-N-(4-(3-methylphenyl)thiazole-2-base) acetamide]",have the same inhibitory effect on inflammatory factors,can inhibit the secretion of various inflammatory factors in macrophages
